{
  "source": "patent US20060275816A1",
  "about": "“Methods for identifying drug pharmacology and toxicology” (priority 2005, published 2006)",
  "key": {"HepG2 cells [1]": {"system": "HepG2 cells", "experiment": "Cytotoxicity, CellTiter Blue Cell Viability Assay (LD50)", "type": "cell-based", "protocol": "FIG. 3 provides a graphical illustration of an experimental approach used to assess candidate compounds. (1) Cells were plated and allowed to adhere for one day. At that time various concentrations of compound were added to cells and incubated for an additional 72 hours. […] (2) Cells were plated as above and treated with compound at the predetermined LD50 concentration. Following 24 hours incubation in the presence of compound, cells were collected, RNA was harvested and 3) analyzed using the RiboChip.\nIn an embodiment, human hepatocellular carcinoma HepG2 cells were used to test the effect of a compound on liver biology and toxicology. […] In an embodiment, a single acute dose of a compound is used. […] The choice of high dose identifies the possible modes of toxicity and detects low-incidence responses.\nCells were maintained as recommended in Minimal Essential Medium (MEM) (Gibco-BRL, a Division of Invitrogen, Carlsbad, Calif.) with 10% fetal bovine serum (FBS, HyClone, Logan, Utah) supplemented with antibiotics in p150 plates at 37° C., 5% CO2. Cells were split 1:5 and fresh media added every 3 days.\nCytotoxicity was assessed using the Alamar Blue-based CellTiter™ Blue Cell Viability Assay (Promega, Madison, Wis.) to determine the viable cell fraction that remained following a 72 hour treatment period. Cells (˜8,000 cells/well) were plated in 96 well BioCoat collagen coated plates (Becton Dickinson, Franklin Lakes, N.J.) using standard media. […] Cells were then allowed to recover for 24 hours at 37° C., 5% CO2. A two (2) fold dilution series was prepared for each compound starting at 3.0 mM in MEM containing 0.1% BSA (instead of 10% FBS) but without phenol red or antibiotics. Following the cell recovery period, the media was removed and fresh media containing compound was added. Treatments were performed in triplicate for each compound at each dose. Cells were incubated with compound for 72 hours at 37° C., 5% CO2. The viable cell fraction remaining was determined by washing the wells with fresh media without indicator, lysing the remaining live cells by adding 0.9% Triton X-100 (Sigma, St. Louis, Mo.) in water, and performing the Alamar Blue assay as described in the CellTiter™ Blue Cell Viability Assay product literature."}, "HepG2 cells [2]": {"system": "HepG2 cells", "experiment": "Apoptosis, Apo-ONE Homogeneous Caspase-3/7 Assay", "type": "cell-based, human", "conditions": "24 hours"}, "CCR2 mRNA": {"system": "CCR2 mRNA", "experiment": "Quantitative Real Time PCR of CCR2 mRNA in TZD-treated cells", "conditions": "HepG2 cells, LD50 concentration, 24 hours, compound alone"}, "[3]": {"conditions": "patients; Lebovitz 2002; cited from earlier work"}, "[4]": {"conditions": "HepG2 cells, concentration giving 50% cell death after 72 hours"}},
  "note": "“Also recorded” adds a separate entry of the source. Where two headings read alike, the source gives them in different places.",
  "data": [
    {"compound": "CC(C)(Oc1ccc(CCNC(=O)c2ccc(Cl)cc2)cc1)C(=O)O", "note": "[Bezafibrate]", "values": [
      {"measurement": "LD50", "setting": "HepG2 cells [1]; [4]", "result": 1940, "unit": "µM"}
    ]},
    {"compound": "CCCCC(CC)COC(=O)c1ccccc1C(=O)OCC(CC)CCCC", "note": "(stereo not drawn) [Diethylhexylphthalate]", "values": [
      {"measurement": "LD50", "setting": "HepG2 cells [1]; [4]", "result": 34, "unit": "µM"}
    ]},
    {"compound": "Cc1ccc(C)c(OCCCC(C)(C)C(=O)O)c1", "note": "[Gemfibrozil]", "values": [
      {"measurement": "LD50", "setting": "HepG2 cells [1]; [4]", "result": 163, "unit": "µM"}
    ]},
    {"compound": "CCc1ccc(CCOc2ccc(CC3SC(=O)NC3=O)cc2)nc1", "note": "(stereo not drawn) [Pioglitazone]", "values": [
      {"measurement": "induction of apoptosis (Caspase 3/7 activity)", "setting": "HepG2 cells [2]", "result": "did not induce apoptosis at all or only modestly did so; also recorded: undetectable"}
    ]},
    {"compound": "Cc1c(C)c2c(c(C)c1O)CCC(C)(COc1ccc(CC3SC(=O)NC3=O)cc1)O2", "note": "(stereo not drawn) [Troglitazone]", "values": [
      {"measurement": "induction of apoptosis (Caspase 3/7 activity)", "setting": "HepG2 cells [2]", "result": "potent inducers of apoptosis"},
      {"measurement": "cell death at 175 μM", "setting": "HepG2 cells [1]", "result": "significant cell death"},
      {"measurement": "LD50", "setting": "HepG2 cells [1]; [4]", "result": 18, "unit": "µM"},
      {"measurement": "increased CCR2 expression relative to control", "setting": "CCR2 mRNA", "result": 6, "unit": "×"},
      {"measurement": "toxicity that ended marketing or development", "setting": "[3]", "result": "hepatotoxicity"}
    ]},
    {"compound": "CCCCCCCCCCCCCCC(Br)C(=O)O", "note": "(stereo not drawn) [2-Bromohexadecanoic Acid]", "values": [
      {"measurement": "LD50", "setting": "HepG2 cells [1]; [4]", "result": 94, "unit": "µM"}
    ]},
    {"compound": "Cc1cccc(Nc2cc(Cl)nc(SCC(=O)O)n2)c1C", "note": "[Wyeth14643]", "values": [
      {"measurement": "LD50", "setting": "HepG2 cells [1]", "result": 226, "unit": "µM"}
    ]},
    {"compound": "N-Acetly-Asp-Glu-Val-Asp-aldehyde [DEVD]", "values": [
      {"measurement": "block of TZD-induced apoptosis", "setting": "HepG2 cells [2]; co-administered with TZDs", "result": "efficiently blocked"}
    ]},
    {"compound": "CCOC(=O)C(C)(C)Oc1ccc(Cl)cc1", "note": "[Clofibrate]", "values": [
      {"measurement": "LD50", "setting": "HepG2 cells [1]; [4]", "result": 240, "unit": "µM"}
    ]},
    {"compound": "O=C(O)C(F)(F)C(F)(F)C(F)(F)C(F)(F)C(F)(F)C(F)(F)C(F)(F)F", "note": "[Perfluourooctanoic Acid]", "values": [
      {"measurement": "LD50", "setting": "HepG2 cells [1]; [4]", "result": 191, "unit": "µM"}
    ]},
    {"compound": "CN(CCOc1ccc(CC2SC(=O)NC2=O)cc1)c1ccccn1", "note": "(stereo not drawn) [Rosiglitazone]", "values": [
      {"measurement": "induction of apoptosis (Caspase 3/7 activity)", "setting": "HepG2 cells [2]", "result": "did not induce apoptosis at all or only modestly did so"}
    ]},
    {"compound": "CC1(COc2ccc(CC3SC(=O)NC3=O)cc2)CCCCC1", "note": "(stereo not drawn) [Ciglitazone]", "values": [
      {"measurement": "induction of apoptosis (Caspase 3/7 activity)", "setting": "HepG2 cells [2]", "result": "potent inducers of apoptosis"},
      {"measurement": "cell death at 175 μM", "setting": "HepG2 cells [1]", "result": "significant cell death"},
      {"measurement": "LD50", "setting": "HepG2 cells [1]; human, 72 h", "result": 76, "unit": "µM"}
    ]},
    {"compound": "CCCCC/C=C/C=C1/C(=O)C=C[C@@H]1C/C=C\\CCCC(=O)O", "note": "[15-Deoxy-Δ^12,14-Prostaglandin J2]", "values": [
      {"measurement": "LD50", "setting": "HepG2 cells [1]", "result": 34, "unit": "µM"}
    ]},
    {"compound": "CC(C)OC(=O)C(C)(C)Oc1ccc(C(=O)c2ccc(Cl)cc2)cc1", "note": "[Fenofibrate]", "values": [
      {"measurement": "LD50", "setting": "HepG2 cells [1]; human, 72 h", "result": 500, "unit": "µM"}
    ]},
    {"compound": "O=C(Nc1ccccc1)c1cc([N+](=O)[O-])ccc1Cl", "note": "[GW-9662]", "values": [
      {"measurement": "LD50", "setting": "HepG2 cells [1]", "result": 125, "unit": "µM"}
    ]}
  ]
}
